MIC data for eleven compounds are collected here from ChEMBL document CHEMBL1275606, “Novel chromosome-encoded CTX-M-78 beta-lactamase from a Kluyvera georgiana clinical isolate as a putative origin of CTX-M-25 subgroup” (2010).

In brackets after ≈: the same amount, converted by molar mass.

One assay concerns Kluyvera georgiana. Kind of assay: Antimicrobial activity against Kluyvera georgiana 14751 expressing beta-lactamase CTX-M-78 obtained from bloodstream of patient by […] in presence of beta-lactamase inhibitor clavulanic acid. It counts as functional. (In general: A growth-free zone around the sample is the usual read-out of agar diffusion tests.)
As a reminder, the MIC is the lowest concentration found to suppress growth. With `CC1(C)S[C@@H]2[C@H](NC(=O)[C@H](N)c3ccccc3)C(=O)N2[C@H]1C(=O)O` [AMPICILLIN], the MIC was 4 µg/mL.

The test system of the next assay is Escherichia coli. Put plainly: Antimicrobial activity against Escherichia coli TOP10F' by […]. It counts as functional.
`CC(=O)OCC1=C(C(=O)O)N2C(=O)[C@@H](NC(=O)Cc3cccs3)[C@H]2SC1` [CEPHALOTHIN] registered an MIC of 2 µg/mL (≈ 5.04 µM).

`CO/N=C(\C(=O)N[C@@H]1C(=O)N2C(C(=O)O)=C(COC(C)=O)CS[C@H]12)c1csc(N)n1` [CEFOTAXIME] came in with an MIC of at most 0.016 µg/mL.

For `CO[C@@]1(NC(=O)Cc2cccs2)C(=O)N2C(C(=O)O)=C(COC(N)=O)CS[C@@H]21` [CEFOXITIN], 2 µg/mL (≈ 4.68 µM) was the least that counted as inhibitory (MIC).

For the compound `NC[C@H]1O[C@H](O[C@H]2[C@H](O)[C@@H](O[C@H]3O[C@H](CO)[C@@H](O)[C@H](N)[C@H]3O)[C@H](N)C[C@@H]2N)[C@H](O)[C@@H](O)[C@@H]1O` [KANAMYCIN], the minimal inhibitory concentration (MIC) is 1 µg/mL (≈ 2.06 µM).

In turn, `CO/N=C(\C(=O)N[C@@H]1C(=O)N2C(C(=O)[O-])=C(C[N+]3(C)CCCC3)CS[C@H]12)c1csc(N)n1` [CEFEPIME] yielded an MIC of 0.016 µg/mL (≈ 0.0333 µM).

For `CC(C)(O/N=C(\C(=O)N[C@@H]1C(=O)N2C(C(=O)[O-])=C(C[n+]3ccccc3)CS[C@H]12)c1csc(N)n1)C(=O)O` [CEFTAZIDIME], the minimal inhibitory concentration (MIC) came to 0.125 µg/mL (≈ 0.229 µM).

Another assay deals with Kluyvera georgiana. Put plainly: Antimicrobial activity against Kluyvera georgiana 14751 expressing beta-lactamase CTX-M-78 obtained from bloodstream of patient by […]. It counts as functional.
In the case of `CC(=O)OCC1=C(C(=O)O)N2C(=O)[C@@H](NC(=O)Cc3cccs3)[C@H]2SC1` [CEPHALOTHIN], it took 8 µg/mL (≈ 20.2 µM) to inhibit growth (MIC).

As to `CO/N=C(\C(=O)N[C@@H]1C(=O)N2C(C(=O)O)=C(COC(C)=O)CS[C@H]12)c1csc(N)n1` [CEFOTAXIME], it took 0.032 µg/mL (≈ 0.0703 µM) to inhibit growth (MIC).

Compound `C[C@H]1[C@H](NC(=O)/C(=N\OC(C)(C)C(=O)O)c2csc(N)n2)C(=O)N1S(=O)(=O)O` [AZTREONAM] had a minimum inhibitory concentration (MIC) of at most 0.016 µg/mL.

Take `CCn1cc(C(=O)O)c(=O)c2ccc(C)nc21` [NALIDIXIC ACID]: 128 µg/mL (≈ 551 µM) was the least that counted as inhibitory (MIC).

In turn, `CO[C@@]1(NC(=O)Cc2cccs2)C(=O)N2C(C(=O)O)=C(COC(N)=O)CS[C@@H]21` [CEFOXITIN] registered an MIC of 1 µg/mL (≈ 2.34 µM).

Regarding `NC[C@H]1O[C@H](O[C@H]2[C@H](O)[C@@H](O[C@H]3O[C@H](CO)[C@@H](O)[C@H](N)[C@H]3O)[C@H](N)C[C@@H]2N)[C@H](O)[C@@H](O)[C@@H]1O` [KANAMYCIN], the MIC was determined as 16 µg/mL (≈ 33 µM).

In turn, `CO/N=C(\C(=O)N[C@@H]1C(=O)N2C(C(=O)[O-])=C(C[N+]3(C)CCCC3)CS[C@H]12)c1csc(N)n1` [CEFEPIME] returned a minimum inhibitory concentration (MIC) of 0.032 µg/mL (≈ 0.0666 µM).

In the case of `CC1(C)S[C@@H]2[C@H](NC(=O)[C@H](N)c3ccccc3)C(=O)N2[C@H]1C(=O)O` [AMPICILLIN], the minimum inhibitory concentration (MIC) worked out at 256 µg/mL (≈ 733 µM).

Turning to `CC(C)(O/N=C(\C(=O)N[C@@H]1C(=O)N2C(C(=O)[O-])=C(C[n+]3ccccc3)CS[C@H]12)c1csc(N)n1)C(=O)O` [CEFTAZIDIME], the MIC is 0.063 µg/mL (≈ 0.115 µM).

The compound `CN(C)[C@@H]1C(O)=C(C(N)=O)C(=O)[C@@]2(O)C(O)=C3C(=O)c4c(O)cccc4[C@@](C)(O)[C@H]3C[C@@H]12` [TETRACYCLINE] showed an MIC of at most 0.5 µg/mL.

The compound GENTAMICIN gave an MIC of 64 µg/mL.

For another assay, the system named is Escherichia coli. Put plainly: Antimicrobial activity against Escherichia coli TOP10F' transformant harboring beta-lactamase CTX-M-78 by […]. It counts as functional.
As to `CC(=O)OCC1=C(C(=O)O)N2C(=O)[C@@H](NC(=O)Cc3cccs3)[C@H]2SC1` [CEPHALOTHIN], the MIC came to 256 µg/mL (≈ 646 µM).

In the case of `CO/N=C(\C(=O)N[C@@H]1C(=O)N2C(C(=O)O)=C(COC(C)=O)CS[C@H]12)c1csc(N)n1` [CEFOTAXIME], the MIC came to 1 µg/mL (≈ 2.2 µM).

`C[C@H]1[C@H](NC(=O)/C(=N\OC(C)(C)C(=O)O)c2csc(N)n2)C(=O)N1S(=O)(=O)O` [AZTREONAM] came in with an MIC of 0.5 µg/mL (≈ 1.15 µM).

In turn, `CCn1cc(C(=O)O)c(=O)c2ccc(C)nc21` [NALIDIXIC ACID] came in with a minimum inhibitory concentration (MIC) of 2 µg/mL (≈ 8.61 µM).

On to `CO[C@@]1(NC(=O)Cc2cccs2)C(=O)N2C(C(=O)O)=C(COC(N)=O)CS[C@@H]21` [CEFOXITIN], for which it took 2 µg/mL (≈ 4.68 µM) to inhibit growth (MIC).

In the case of `NC[C@H]1O[C@H](O[C@H]2[C@H](O)[C@@H](O[C@H]3O[C@H](CO)[C@@H](O)[C@H](N)[C@H]3O)[C@H](N)C[C@@H]2N)[C@H](O)[C@@H](O)[C@@H]1O` [KANAMYCIN], the minimum inhibitory concentration (MIC) amounted to 256 µg/mL (≈ 528 µM).

Compound `CO/N=C(\C(=O)N[C@@H]1C(=O)N2C(C(=O)[O-])=C(C[N+]3(C)CCCC3)CS[C@H]12)c1csc(N)n1` [CEFEPIME] displayed a minimum inhibitory concentration (MIC) of 0.5 µg/mL (≈ 1.04 µM).

`CC1(C)S[C@@H]2[C@H](NC(=O)[C@H](N)c3ccccc3)C(=O)N2[C@H]1C(=O)O` [AMPICILLIN] had a minimum inhibitory concentration (MIC) of 256 µg/mL (≈ 733 µM).

As for `CC(C)(O/N=C(\C(=O)N[C@@H]1C(=O)N2C(C(=O)[O-])=C(C[n+]3ccccc3)CS[C@H]12)c1csc(N)n1)C(=O)O` [CEFTAZIDIME], the MIC came out at 0.25 µg/mL (≈ 0.457 µM).

Compound `CN(C)[C@@H]1C(O)=C(C(N)=O)C(=O)[C@@]2(O)C(O)=C3C(=O)c4c(O)cccc4[C@@](C)(O)[C@H]3C[C@@H]12` [TETRACYCLINE] yielded a minimum inhibitory concentration (MIC) of 256 µg/mL (≈ 576 µM).

For the compound GENTAMICIN, the minimum inhibitory concentration (MIC) was under 0.5 µg/mL.
